ChEMBL document CHEMBL1201862, “PubChem BioAssay data set” (2004)
One block for each molecule: values may come before it. The source made the active and inactive calls.

What was measured:
[1] = cytotoxicity toward Colo320 cells – cell-based, CellTiter-Glo luminescence, IC50, dose response (AID 1117334); type: functional; details: COLO 320
[2] = cytotoxicity toward HCT116 cells – cell-based, CellTiter-Glo luminescence, IC50, dose response (AID 1117332); type: functional; details: HCT-116
[3] = Reduced DLD-1 viability, concentration-response, CellTiter-Glo luminescence (AID 1117352); type: functional
[4] = CellTiter-Glo luminescence survival assay, SW480 colon tumor line, concentration-response curve, half-maximal inhibitory concentration (AID 1117338); type: functional
[5] = fluconazole-exposed Candida albicans growth modulators – fluorescence, retest, confirmation (AID 2467); type: functional, cell-based
[6] = cells
[7] = NIH-3T3 fibroblast cytotoxicity, dose response, cytotoxicity control, cell-based, fluorescence, Alamar Blue, secondary assay (AID 2327); type: functional;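 also: NIH-3T3 mouse fibroblasts cultured with fluconazole at 8 µg/mL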
[8] = viability of uninfected HEp-2 cells – cell-based, HTS, cytotoxicity control for RSV inhibitor project, dose response (AID 2410); type: functional; details: human respiratory syncytial virus
[9] = target: Estrogen receptor beta (Homo sapiens, UniProt Q92731); assay: blockers of SRC-3 recruitment to ERβ – biochemical, ELISA, streptavidin-HRP readout, orthogonal assay, confirmation (AID 1060)
[10] = mitochondrial function rescue without frataxin homolog – Friedreich's ataxia, plus single-dose screen, dose response (AID 1465); type: functional;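 also: yeast depleted of Yfh1p frataxin homolog grown on glycerol needing respiration; WST-1 tetrazolium dye reduction as measure of cellular dehydrogenase metabolic activity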
[11] = toxicity toward HepG2 liver cells – cell-based, plate reader, cherry-pick, antagonist series, cytotoxicity control, dose response (AID 743416); type: functional
[12] = A549 cell cytotoxicity, dose response, cytotoxicity control, plate reader, cherry-pick, antagonist series (AID 743412); type: functional, cell-based
[13] = viability loss in HEK293 cells – cell-based, plate reader, cherry-picked samples, cytotoxicity control, dose response (AID 743446); type: functional
[14] = blockade of melanocortin 4 receptor signaling – cell-based, plate reader, cherry pick, counter-screen for LGR2 antagonist project, dose response (AID 743444); type: functional;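 also: transfected HEK 293 cells stimulated with alpha-MSH peptide; potency of inhibitors of the alpha-MSH evoked signal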
[15] = blockers of bursicon-stimulated LGR2 cAMP reporter – cell-based, HEK293, CRE-luciferase reporter, cherry pick, set 2, dose response (AID 743343); type: functional;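 also: transfected cells were stimulated with diluted bursicon conditioned medium after compound addition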
[16] = NIH3T3 cell viability loss – ATP luminescence, mouse fibroblasts, counter-screen, dose response (AID 2010); type: functional, cell-based;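 also: cells exposed to compound for about 90 hours before reading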
[17] = Trypanosoma cruzi growth suppression in host cells – NIH3T3 host cells, beta-gal luminescence, confirmation (AID 2044); type: functional, cell-based;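 also: intracellular parasites grown in NIH/3T3 mouse fibroblasts as host cells; luminescent beta-galactosidase reporter signal from transgenic T. cruzi replicating inside host cells; inhibitors lower the luminescence signal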
[18] = Luminescence-based cell-based high throughput dose response assay to identify activators of the DAF-12 from the parasite S. stercoralis (ssDAF-12).; type: functional
[19] = target: T1, Oxysterols receptor LXR-beta (Homo sapiens, UniProt P55055); assay: LXR agonists, Gal4 luciferase reporter, dose response, counter-screen for ssDAF-12 agonist project, cell-based, luminescence, HEK293, S. stercoralis campaign (AID 720737); type: functional; details: read-out: IC50 (the source's name)
T1 sequence (P55055 whole entry): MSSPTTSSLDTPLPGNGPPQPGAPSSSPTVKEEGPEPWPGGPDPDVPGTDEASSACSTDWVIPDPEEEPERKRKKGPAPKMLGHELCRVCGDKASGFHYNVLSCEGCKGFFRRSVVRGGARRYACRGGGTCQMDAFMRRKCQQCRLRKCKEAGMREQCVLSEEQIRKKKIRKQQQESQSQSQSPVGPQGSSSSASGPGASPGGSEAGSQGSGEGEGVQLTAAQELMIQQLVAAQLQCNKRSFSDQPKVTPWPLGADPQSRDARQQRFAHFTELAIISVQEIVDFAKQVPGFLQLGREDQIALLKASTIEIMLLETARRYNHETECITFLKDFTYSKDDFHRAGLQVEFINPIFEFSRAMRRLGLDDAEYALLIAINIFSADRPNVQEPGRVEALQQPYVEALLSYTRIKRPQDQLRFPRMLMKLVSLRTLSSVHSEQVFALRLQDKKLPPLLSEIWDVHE

[20] = target: T2, Carboxy-terminal domain RNA polymerase II polypeptide A small phosphatase 1 (Homo sapiens, UniProt Q9GZU7); assay: CTDSP1 inhibitors, concentration-response, biochemical, absorbance readout, ultra-high-throughput screen actives (AID 540297); type: functional
T2 sequence (Q9GZU7 whole entry): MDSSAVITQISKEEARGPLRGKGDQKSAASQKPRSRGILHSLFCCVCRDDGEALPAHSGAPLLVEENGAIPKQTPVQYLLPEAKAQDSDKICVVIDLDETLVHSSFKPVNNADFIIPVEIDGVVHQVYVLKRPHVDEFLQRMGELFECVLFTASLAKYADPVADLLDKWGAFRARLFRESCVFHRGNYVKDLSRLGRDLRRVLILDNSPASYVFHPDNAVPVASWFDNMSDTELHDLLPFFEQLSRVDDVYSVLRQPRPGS

[21] = target: T3, Mannose-6-phosphate isomerase (Homo sapiens, UniProt P34949); assay: MPI inhibition at elevated mannose 6-phosphate – biochemical, fluorescence intensity, high mannose 6-phosphate, primary screen (AID 1220)
T3 sequence (P34949 whole entry): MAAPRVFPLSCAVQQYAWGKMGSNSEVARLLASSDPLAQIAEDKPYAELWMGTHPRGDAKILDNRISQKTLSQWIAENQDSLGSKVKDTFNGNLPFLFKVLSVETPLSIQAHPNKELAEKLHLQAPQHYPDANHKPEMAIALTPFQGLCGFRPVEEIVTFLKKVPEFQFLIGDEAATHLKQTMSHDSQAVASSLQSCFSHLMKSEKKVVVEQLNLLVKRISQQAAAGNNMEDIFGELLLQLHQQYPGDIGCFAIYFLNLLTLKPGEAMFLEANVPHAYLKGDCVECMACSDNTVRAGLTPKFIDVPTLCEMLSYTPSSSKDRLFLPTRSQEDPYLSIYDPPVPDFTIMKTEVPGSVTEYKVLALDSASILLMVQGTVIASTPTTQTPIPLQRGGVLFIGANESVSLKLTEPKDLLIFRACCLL

[22] = cytotoxicity in MITF-independent A375 cells – cell-based, CellTiter-Glo luminescence, dry powder, set 4, counter-screen for MITF inhibitor project, dose response (AID 624364); type: functional; details: A-375;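 also: A375 melanoma cells are MITF independent so this is a counter screen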
[23] = viability loss in MITF-independent A375 cells – cell-based, CellTiter-Glo luminescence, dry powder, set 2, counter-screen for MITF inhibitor project, dose response (AID 624489); type: functional; details: A-375;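 also: actives are compounds lowering A375 viability meaning general cytotoxicity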
[24] = target: Prothrombin (Homo sapiens, UniProt P00734); assay: Thrombin 1536 HTS Dose Response Confirmation. [Related pubchem assays: 1046 (Thrombin 1536 HTS; hits were confirmed in this assay)]; type: functional

Sequence of Estrogen receptor beta (Q92731 whole entry): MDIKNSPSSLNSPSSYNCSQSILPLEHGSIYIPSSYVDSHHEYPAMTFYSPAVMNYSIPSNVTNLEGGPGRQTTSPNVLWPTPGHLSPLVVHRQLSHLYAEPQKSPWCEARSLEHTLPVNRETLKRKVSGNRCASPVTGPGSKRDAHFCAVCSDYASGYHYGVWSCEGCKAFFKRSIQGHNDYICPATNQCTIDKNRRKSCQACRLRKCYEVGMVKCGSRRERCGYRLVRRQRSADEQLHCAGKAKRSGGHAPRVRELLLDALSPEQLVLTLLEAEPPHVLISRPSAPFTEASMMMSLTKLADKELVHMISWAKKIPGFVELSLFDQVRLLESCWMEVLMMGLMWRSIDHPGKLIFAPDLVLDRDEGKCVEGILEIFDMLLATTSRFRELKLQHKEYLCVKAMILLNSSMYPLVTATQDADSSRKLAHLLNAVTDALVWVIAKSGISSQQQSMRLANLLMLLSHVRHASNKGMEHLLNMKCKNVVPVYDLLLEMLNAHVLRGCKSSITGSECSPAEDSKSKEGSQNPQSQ

Structure (SMILES): c1cnc2cc3c(cc2n1)[C@@H]1CNC[C@H]3C1 [VARENICLINE]
IC50 [1]: > 20 µM (inactive)
IC50 [2]: > 20 µM (inactive)
IC50 [3]: > 6.67 µM (inactive)
IC50 [4]: > 6.67 µM (inactive)

Structure (SMILES): O=C1CN2C(=Nc3ccc(Cl)cc3C2c2ccccc2)CN1 (centres undefined)
EC50 [5]: 3.04 µM (active)
IC50 [6]: 24.2 µM (active)
EC50 [7]: > 160 µM (inactive)

Structure (SMILES): CCOC(=O)c1sc(NC(=O)Cn2nnc3sc4c(c3c2=O)CCC(C(C)(C)C)C4)nc1C (centres undefined)
CC50 [8]: 23.7 µM (active)
IC50 [6]: > 25 µM (active)

IC50 [9]: 0.0598 µM (not active)
Structure (SMILES): CCOC(=O)c1ccc(NC(=O)COc2ccc(-n3cnnn3)cc2)cc1

Structure (SMILES): CN(CCO)c1cc(N2CCC3(CC2)OCCO3)c2nonc2c1[N+](=O)[O-]
EC50 [10]: > 100 µM (active)

Structure (SMILES): C[C@H]1CN([C@@H](C)CO)C(=O)Cc2cc(NS(=O)(=O)c3ccc(Cl)cc3)ccc2O[C@@H]1CN(C)Cc1ccc(Cl)c(Cl)c1
AC50 [11]: 11.3 µM (active)
AC50 [12]: 10.2 µM (active)
AC50 [13]: 19.6 µM (active)
AC50 [14]: 12.7 µM (active)
AC50 [15]: 20.4 µM (active)

Structure (SMILES): CCOc1ccccc1C(=O)N[C@H](C(=O)Nc1nc2c(s1)CCCC2)C(C)C
EC50 [16]: > 60 µM (inconclusive)
EC50 [17]: 1.01 µM (active)
IC50 [18]: > 67.6 µM (inactive)
EC50 [19]: > 67.6 µM (inactive)

Structure (SMILES): O=C(Nc1ccccc1)C(=O)c1c[nH]c2ccccc12
IC50 [18]: > 67.5 µM (inactive)
EC50 [19]: > 67.5 µM (inactive)

IC50 [20]: 9.75 µM (active)
IC50 [21]: > 50 µM (not active)
Structure (SMILES): CC(C)CCOc1ccc(C(=O)C[N+]2(C)CCOCC2)cc1

Structure (SMILES): CCN1CCN(C2=C(Nc3ccccc3)C(=O)c3ccccc3C2=O)CC1
AC50 [22]: 46.6 µM (active)
AC50 [23]: 25.5 µM (active)

Structure (SMILES): N#C/C(=C/c1ccc(N2CCOCC2)o1)C(=O)N1CCOCC1
EC50 [10]: > 100 µM (active)

IC50 [24]: 0.0232 µM (active)
Structure (SMILES): CCCC(=O)n1nc(-c2ccco2)nc1SCc1ccccc1

IC50 [24]: 0.00567 µM (active)
Structure (SMILES): CC(C)C(=O)n1nc(-c2cccnc2)nc1NCc1ccc(F)cc1
